Laboratory results: paper PMC3148216, “A Prokaryotic S1P Lyase Degrades Extracellular S1P In Vitro and In Vivo: Implication for Treating Hyperproliferative Disorders” (PLoS ONE, 2011)

Molecular target: T1, StSPL (S1P lyase from Symbiobacterium thermophilum) (Symbiobacterium thermophilum, UniProt Q67PY4)
T1 construct: gene STH1274; full-length STH1274, C-terminal His-tag, expressed in E. coli, 507 residues, 55 kDa monomer, homodimer (110 kDa); PLP-dependent, residues of both subunits form the active site
Assay: visible spectrum of enzyme-bound cofactor, change on substrate addition
Type: binding
Conditions: Schiff base with K311, covalent; S1P added; purified in PBS with 10 µM PLP

T1 sequence (Q67PY4 entry or part of it): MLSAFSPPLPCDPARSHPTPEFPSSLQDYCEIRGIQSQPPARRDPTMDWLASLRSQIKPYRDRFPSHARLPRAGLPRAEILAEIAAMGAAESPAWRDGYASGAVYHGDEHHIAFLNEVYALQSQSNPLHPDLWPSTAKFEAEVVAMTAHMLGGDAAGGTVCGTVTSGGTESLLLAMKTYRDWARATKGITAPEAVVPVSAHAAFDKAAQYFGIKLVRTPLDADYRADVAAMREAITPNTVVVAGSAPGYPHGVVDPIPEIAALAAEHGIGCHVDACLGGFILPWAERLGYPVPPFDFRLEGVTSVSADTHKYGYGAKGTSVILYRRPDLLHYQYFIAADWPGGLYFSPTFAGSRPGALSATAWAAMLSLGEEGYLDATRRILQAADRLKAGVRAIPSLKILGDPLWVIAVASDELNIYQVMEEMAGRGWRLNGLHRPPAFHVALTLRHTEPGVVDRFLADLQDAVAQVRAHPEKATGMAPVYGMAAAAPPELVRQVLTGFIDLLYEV

## Cc1ncc(COP(=O)(O)O)c(C=O)c1O [PLP, pyridoxal-5′-phosphate]
  visible spectrum of enzyme-bound cofactor, change on substrate addition: recording spectrophotometric changes of the cofactor upon catalysis
